In brackets after ≈: the same amount, converted by molar mass.
Experiments:
[1] = tested on: E. coli NIH JC-2 (IFO 12734); assay: Minimum inhibitory concentration, standard method of the Japan Society of Chemotherapy; type: cell-based; settings: Escherichia coli, IFO12734
Procedure: (§1) With respect to certain representative compounds among the compounds [I] of the present invention, their minimum inhibitory concentrations (MIC; μg/ml) were measured in accordance with the standard method established by the Japan Society of Chemotherapy [CHEMOTHERAPY, 29(1), 76-79 (1981)]. The results are summarized in Table 1, in which the compound numbers are as shown in examples.

P. aeruginosa (IFO 3445) = assay: as above; type: cell-based; settings: Pseudomonas aeruginosa, IFO3445
Procedure: as §1

[2] = tested on: S. aureus 209 P (IFO 12732); assay: as above; type: cell-based; settings: Staphylococcus aureus, IFO12732
Procedure: as §1

[3] = Partition coefficient, phosphate buffer/n-octanol; type: physicochemical; settings: n-octanol/50 mm phosphate buffer; 50 mM phosphate buffer (pH 7.4, μ=0.15)/n-octanol
Procedure: Following the method proposed by Akira Tsuji et al. in Antimicrob. Agents Chemother., 32, 190-194 (1988), 50 mM phosphate buffer (pH 7.4, μ=0.15)/n-octanol partition coefficients were measured.

mice = assay: Interaction with fenbufen and toxicological study (coadministration test with fenbufen); type: in vivo
Procedure: Fenbufen and the quinolone compounds were each diluted with a solution of 0.5% methylcellulose.
A dose of 200 mg/kg of fenbufen was administered by oral route to groups of 10 mice (female, ICR, 18-23 g) 90 minutes before administration of the quinolone compounds by oral route, at a dose of 500 mg/kg. […] Following the 24 hours number of survival animals was noted.

Row | SMILES | MIC [1] | MIC (P. aeruginosa (IFO 3445)) | MIC [2] | logD [3] | Induction of convulsion, number of positive mice (mice; mouse, in vivo) | Mortality, number of dead mice (mice; mouse, in vivo) | Mortality, number of dead mice (mice; quinolone 500 mg/kg oral, 90 min after fenbufen 200 mg/kg oral, 24 hours) | Induction of convulsion, number of positive mice (mice; quinolone 500 mg/kg oral, 90 min after fenbufen 200 mg/kg oral, during two hours)
1 | CN1CCN(c2c(F)c(N)c3c(=O)c(C(=O)O)cn(C4COC4)c3c2F)CC1 [Compound 29] | 0.1 µg/mL (≈ 0.254 µM) | 0.78 µg/mL (≈ 1.98 µM) | 0.78 µg/mL (≈ 1.98 µM) | -0.333 | 0/10 | 0/10 | – | –
2 | C[C@H]1CN(c2c(F)c(N)c3c(=O)c(C(=O)O)cn(C4COC4)c3c2F)C[C@H]1N.O=S(=O)(O)O (single isomer, unassigned) [Compound 117, 5-Amino-7-{(-)-cis-3-amino-4-methylpyrrolidin-1-yl}-6,8-difluoro-1-(oxetan-3-yl) -1,4-dihydro-4-oxoquinoline-3-carboxylic acid sulfuric acid salt] | – | – | – | – | – | – | 0/10 | 0/10
3 | CCn1cc(C(=O)O)c(=O)c2cc(F)c(N3CCNCC3)nc21 [Enoxacin, enoxacin, reference compound] | – | – | – | – | 10/10 | 10/10 | – | –
4 | Nc1c(F)c(N2Cc3ccccc3C2)c(F)c2c1c(=O)c(C(=O)O)cn2C1COC1 [Compound 30] | 0.78 µg/mL (≈ 1.89 µM) | 3.13 µg/mL (≈ 7.57 µM) | 0.2 µg/mL (≈ 0.484 µM) | – | – | – | – | –
5 | CNCC1CCN(c2c(F)cc3c(=O)c(C(=O)O)cn(C4COC4)c3c2F)C1 (centres unmarked) [Compound 46] | 0.78 µg/mL (≈ 1.98 µM) | 3.13 µg/mL (≈ 7.96 µM) | 0.1 µg/mL (≈ 0.254 µM) | – | – | – | – | –
6 | CO[C@@H]1CN(c2nc3c(cc2F)c(=O)c(C(=O)O)cn3C2COC2)C[C@H]1N (relative stereo) [Compound 88] | 0.78 µg/mL (≈ 2.06 µM) | 3.13 µg/mL (≈ 8.27 µM) | 6.25 µg/mL (≈ 16.5 µM) | – | – | – | – | –
7 | NCC1CCN(c2cc3c(cc2F)c(=O)c(C(=O)O)cn3C2COC2)C1 (centres unmarked) [Compound 38] | 3.13 µg/mL (≈ 8.66 µM) | 12.5 µg/mL (≈ 34.6 µM) | 0.39 µg/mL (≈ 1.08 µM) | – | – | – | – | –
8 | CCNC1CCN(c2nc3c(cc2F)c(=O)c(C(=O)O)cn3C2COC2)C1 (centres unmarked) [Compound 69] | 0.39 µg/mL (≈ 1.04 µM) | 1.56 µg/mL (≈ 4.14 µM) | 3.13 µg/mL (≈ 8.32 µM) | – | – | – | – | –
9 | NC1CN(c2cc3c(cc2F)c(=O)c(C(=O)O)cn3C2COC2)C1 [Compound 41] | 0.78 µg/mL (≈ 2.34 µM) | 6.25 µg/mL (≈ 18.8 µM) | 12.5 µg/mL (≈ 37.5 µM) | – | – | – | – | –
10 | O=C(O)c1cn(C2COC2)c2c(F)c(N3CC(O)C3)c(F)cc2c1=O [Compound 17] | 0.78 µg/mL (≈ 2.21 µM) | 6.25 µg/mL (≈ 17.7 µM) | 3.13 µg/mL (≈ 8.88 µM) | – | – | – | – | –
11 | CN(C)C1CCN(c2c(F)cc3c(=O)c(C(=O)O)cn(C4COC4)c3c2F)C1 (centres unmarked) [Compound 19] | 0.2 µg/mL (≈ 0.508 µM) | 3.13 µg/mL (≈ 7.96 µM) | 1.56 µg/mL (≈ 3.97 µM) | – | – | – | – | –
12 | CO[C@@H]1CN(c2c(F)c(N)c3c(=O)c(C(=O)O)cn(C4COC4)c3c2F)C[C@H]1N (relative stereo) [Compound 86] | 0.39 µg/mL (≈ 0.95 µM) | 3.13 µg/mL (≈ 7.63 µM) | 1.56 µg/mL (≈ 3.8 µM) | – | – | – | – | –
13 | C[C@H]1CN(c2c(F)c(N)c3c(=O)c(C(=O)O)cn(C4COC4)c3c2F)C[C@H]1N (single isomer, unassigned) [Compound 113, 5-Amino-7-{(-)-cis-3-amino-4-methylpyrrolidin-1-yl}-6,8-difluoro-1-(oxetan-3-yl)-1,4-dihydro-4-oxoquinoline-3-carboxylic acid] | – | – | – | -0.529 | – | – | – | –
14 | CN[C@@H]1CN(c2c(F)c(N)c3c(=O)c(C(=O)O)cn(C4COC4)c3c2F)C[C@H]1C (relative stereo) [Compound 92] | 0.1 µg/mL (≈ 0.245 µM) | 1.56 µg/mL (≈ 3.82 µM) | 0.39 µg/mL (≈ 0.955 µM) | – | – | – | – | –
15 | O=C(O)c1cn(C2COC2)c2c(F)c(N3CCNCC3)c(F)cc2c1=O [Compound 12] | 0.2 µg/mL (≈ 0.547 µM) | 1.56 µg/mL (≈ 4.27 µM) | 1.56 µg/mL (≈ 4.27 µM) | – | – | – | – | –
16 | CN1CCN(c2cc3c(cc2F)c(=O)c(C(=O)O)cn3C2COC2)CC1 [Compound 35, 6-Fluoro-7-(4-methylpiperazin-1-yl)-1-(oxetan-3-yl)-1,4-dihydro-4-oxoquinoline-3-carboxylic acid] | 0.2 µg/mL (≈ 0.553 µM) | 3.13 µg/mL (≈ 8.66 µM) | 1.56 µg/mL (≈ 4.32 µM) | – | – | – | – | –
17 | CN(C)C1CCN(c2nc3c(cc2F)c(=O)c(C(=O)O)cn3C2COC2)C1 (centres unmarked) [Compound 66] | 0.39 µg/mL (≈ 1.04 µM) | 3.13 µg/mL (≈ 8.32 µM) | 3.13 µg/mL (≈ 8.32 µM) | – | – | – | – | –

Row | SMILES | MIC [1] | MIC (P. aeruginosa (IFO 3445)) | MIC [2] | logD [3] | Induction of convulsion, number of positive mice (mice; mouse, in vivo) | Mortality, number of dead mice (mice; mouse, in vivo) | Mortality, number of dead mice (mice; quinolone 500 mg/kg oral, 90 min after fenbufen 200 mg/kg oral, 24 hours) | Induction of convulsion, number of positive mice (mice; quinolone 500 mg/kg oral, 90 min after fenbufen 200 mg/kg oral, during two hours)
18 | COc1c(N2CCNCC2)c(F)cc2c(=O)c(C(=O)O)cn(C3COC3)c12 [Compound 81] | 0.78 µg/mL (≈ 2.07 µM) | 3.13 µg/mL (≈ 8.29 µM) | 0.78 µg/mL (≈ 2.07 µM) | – | – | – | – | –
19 | NCC1CN(c2c(F)cc3c(=O)c(C(=O)O)cn(C4COC4)c3c2F)CCO1 (centres unmarked) [Compound 22] | 6.25 µg/mL (≈ 15.8 µM) | > 25 µg/mL | 0.78 µg/mL (≈ 1.97 µM) | – | – | – | – | –
20 | NC1CCN(c2nc3c(cc2F)c(=O)c(C(=O)O)cn3C2COC2)C1 (centres unmarked) [Compound 65] | 0.2 µg/mL (≈ 0.574 µM) | 0.39 µg/mL (≈ 1.12 µM) | 1.56 µg/mL (≈ 4.48 µM) | – | – | – | – | –
21 | Cl.N=CN1CCN(c2c(F)c(N)c3c(=O)c(C(=O)O)cn(C4COC4)c3c2F)CC1 [Compound 108, 5-Amino-6,8-difluoro-7-(4-formimidoylpiperazin-1-yl)-1-(oxetan-3-yl)-1,4-dihydro-4-oxoquinoline-3-carboxylic acid hydrochloride] | 0.78 µg/mL | 3.13 µg/mL | 0.78 µg/mL | – | – | – | – | –
22 | O=C(O)c1cn(C2COC2)c2nc(N3CCCC3)c(F)cc2c1=O [Compound 72] | 0.39 µg/mL (≈ 1.17 µM) | 3.13 µg/mL (≈ 9.39 µM) | 0.2 µg/mL (≈ 0.6 µM) | – | – | – | – | –
23 | O=C(O)c1cn(C2COC2)c2c(F)c(N3CCOCC3)c(F)cc2c1=O [Compound 6] | 0.78 µg/mL (≈ 2.13 µM) | 6.25 µg/mL (≈ 17.1 µM) | 0.78 µg/mL (≈ 2.13 µM) | – | – | – | – | –
24 | CN1CCN(c2nc3c(cc2F)c(=O)c(C(=O)O)cn3C2COC2)CC1 [Compound 61, 6-Fluoro-7-(4-methylpiperazin-1-yl)-1-(oxetan-3-yl)-1,4-dihydro-4-oxo-1,8-naphthylidine-3-carboxylic acid] | 0.39 µg/mL (≈ 1.08 µM) | 1.56 µg/mL (≈ 4.31 µM) | 3.13 µg/mL (≈ 8.64 µM) | – | – | – | – | –
25 | NC1CCN(c2c(F)cc3c(=O)c(C(=O)O)cn(C4COC4)c3c2F)C1 (centres unmarked) [Compound 18] | 0.39 µg/mL (≈ 1.07 µM) | 1.56 µg/mL (≈ 4.27 µM) | 1.56 µg/mL (≈ 4.27 µM) | – | – | – | – | –
26 | Nc1c(F)c(N2CCN(O)CC2)c(F)c2c1c(=O)c(C(=O)O)cn2C1COC1 [Compound 107] | 0.78 µg/mL (≈ 1.97 µM) | 6.25 µg/mL (≈ 15.8 µM) | 3.13 µg/mL (≈ 7.9 µM) | – | – | – | – | –
27 | CN(C)CC1CCN(c2cc3c(cc2F)c(=O)c(C(=O)O)cn3C2COC2)C1 (centres unmarked) [Compound 40] | 0.39 µg/mL (≈ 1 µM) | 6.25 µg/mL (≈ 16 µM) | 0.78 µg/mL (≈ 2 µM) | – | – | – | – | –
28 | CNC1CCN(c2c(F)c(N)c3c(=O)c(C(=O)O)cn(C4COC4)c3c2F)C1 (centres unmarked) [Compound 50] | 0.39 µg/mL (≈ 0.989 µM) | 1.56 µg/mL (≈ 3.96 µM) | 0.78 µg/mL (≈ 1.98 µM) | – | – | – | – | –
29 | Nc1c(F)c(N2CCCC2)c(F)c2c1c(=O)c(C(=O)O)cn2C1COC1 [Compound 27, 5-Amino-6,8-difluoro-1-(oxetan-3-yl)-7-(pyrrolidin-1-yl)-1,4-dihydro-4-oxoquinoline-3-carboxylic acid] | 0.39 µg/mL (≈ 1.07 µM) | 3.13 µg/mL (≈ 8.57 µM) | 0.2 µg/mL (≈ 0.547 µM) | – | – | – | – | –
30 | NC1CCN(c2cc3c(cc2F)c(=O)c(C(=O)O)cn3C2COC2)C1 (centres unmarked) [Compound 37] | 0.39 µg/mL (≈ 1.12 µM) | 1.56 µg/mL (≈ 4.49 µM) | 1.56 µg/mL (≈ 4.49 µM) | – | – | – | – | –
31 | CNCC1CCN(c2c(F)c(N)c3c(=O)c(C(=O)O)cn(C4COC4)c3c2F)C1 (centres unmarked) [Compound 52] | 0.78 µg/mL (≈ 1.91 µM) | 3.13 µg/mL (≈ 7.66 µM) | 0.1 µg/mL (≈ 0.245 µM) | – | – | – | – | –
32 | O=C(O)c1cn(C2COC2)c2c(F)c(N3CC=CC3)c(F)cc2c1=O [Compound 5] | 0.39 µg/mL (≈ 1.12 µM) | 6.25 µg/mL (≈ 17.9 µM) | 0.39 µg/mL (≈ 1.12 µM) | – | – | – | – | –
33 | CNC1CCN(c2c(F)cc3c(=O)c(C(=O)O)cn(C4COC4)c3c2F)C1 (centres unmarked) [Compound 44, 6,8-Difluoro-7-(3-methylaminopyrrolidin-1-yl)-1-(oxetan-3-yl)-1,4-dihydro-4-oxoquinoline-3-carboxylic acid] | 0.39 µg/mL (≈ 1.03 µM) | 1.56 µg/mL (≈ 4.11 µM) | 1.56 µg/mL (≈ 4.11 µM) | – | – | – | – | –
